# Measured values from patent US11324750B2, “Compositions and methods for the treatment of severe acute respiratory syndrome coronavirus 2 (SARS-CoV-2) infection” (Children's Hospital Medical Center, priority 2020, dated 2022).
# Entries after “also recorded” stand apart in the source; their conditions may differ.
# Assays:
# SARS-CoV-2 [1] = experiment: Virus clearance time by RT-PCR on throat swab; format: in vivo; details: median (IQR); patients with positive RT-PCR on throat swab; P 0.85 (table), P=0.65
# SARS-CoV-2 [2] = experiment: SARS-CoV-2 copies number in blood by one-step RT-ddPCR; format: in vivo
# [3] = tested on: SARS-CoV-2-specific IgM and IgG; experiment: SARS-CoV-2-specific IgM and IgG detection (CLIA); format: in vivo, human; details: vs control group
# Excerpt: SARS-CoV-2-specific IgM and IgG detection. The SARS-CoV-2-specific IgM and IgG were detected by paramagnetic particle chemiluminescent immunoassay (CLIA) using iFlash-SARS-CoV-2 IgM/IgG assay kit (SHENZHEN YHLO BIOTECH CO., LTD.) and iFlash Immunoassay Analyzer (SHENZHEN YHLO BIOTECH CO., LTD.)
# Procedures. The first day of randomization was designated as D0. The second and the fourth day after randomization were designated D1 and D3, respectively. Dx referred to the day when either disease progressed according to the Chinese management guideline for COVID-19 (version 5.0) or defined as a one-category increase on the seven-category scale. Dend was the day before discharge. The enrolled patients were randomly separated into two groups: the treatment group (group B) received oral intake of ruxolitinib (Jakafi®, Novartis Pharma Stein AG, Switzerland) 5 mg twice a day plus standard-of-care (SoC); the control group (group A) is treated with placebo twice a day with SoC. […] Safety was monitored daily by two independent senior physicians from the trial center. […] The CT features of improvement were evaluated by two independent senior radiologists blindly, which should at least meet one of the following criteria: decreased presence of ground-glass opacities (GGO), decreased lung opacification, reduced density of consolidation or decreased pleural effusion with existence of fibrous stripes^29. […]
# 48 cytokines in serum = experiment: Serum cytokines, Bio-Plex Pro Human Cytokines 48-Plex Screening assay; details: in vivo
smiles,measurement,setting,value
"N#CC[C@H](C1CCCC1)n1cc(-c2ncnc3[nH]ccc23)cn1 [Ruxolitinib, (3R)-3-cyclopentyl-3-[4-(7H-pyrrolo[2,3-d]pyrimidin-4-yl)pyrazol-1-yl]propanenitrile]",Virus clearance time,SARS-CoV-2 [1],13 days
same,Blood viral RNA loads at D1,"SARS-CoV-2 [2]; mean (±SEM), baseline, P=0.57 vs control",94±26 copies per milliliter
same,Viral load at discharge,"SARS-CoV-2 [2]; vs SoC alone, P=0.63",did not differ
same,Peak IgG against SARS-CoV-2,[3],no significant difference
same,Peak level of anti-IgM of SARS-CoV-2,[3]; P=0.039,profoundly higher
same,Average fold-change of 48 cytokines,48 cytokines in serum,0.466
same,Average values of 48 cytokines,48 cytokines in serum,decreased significantly; also recorded: all average values of 48 cytokines decreased
same,Level of MIP-1α,48 cytokines in serum,markedly decreased
same,Level of interleukin-6 (IL-6),48 cytokines in serum,markedly decreased
same,Level of interleukin-12 (IL-12) (p40),48 cytokines in serum,markedly decreased
same,Level of macrophage inflammatory protein 1β (MIP-1β),48 cytokines in serum,markedly decreased
same,Level of macrophage migration inhibitory factor (MIF),48 cytokines in serum,markedly decreased
same,Level of nerve growth factor β (NGF-β),48 cytokines in serum,markedly decreased
same,Level of vascular endothelial growth factor (VEGF),48 cytokines in serum,markedly decreased
